Legend:
ER-β = biological target: T1, ER-β (Homo sapiens, UniProt Q92731); test: ER-β specific assay: ER-β plasmid co-transfected with TNF-RE-tk-Luc or ERE-tk-Luc; assay type: cell-based
T1 construct: expressed in transfected cells
Protocol: Purified compounds were analyzed by LC-MS and NMR and data was compared to data acquired from authentic purchased standards.

breast cancer cells = test: Activity in cancerous cells, in particular breast cancer cells, in vitro; assay type: cell-based

T1 sequence (Q92731 whole entry, species assumed): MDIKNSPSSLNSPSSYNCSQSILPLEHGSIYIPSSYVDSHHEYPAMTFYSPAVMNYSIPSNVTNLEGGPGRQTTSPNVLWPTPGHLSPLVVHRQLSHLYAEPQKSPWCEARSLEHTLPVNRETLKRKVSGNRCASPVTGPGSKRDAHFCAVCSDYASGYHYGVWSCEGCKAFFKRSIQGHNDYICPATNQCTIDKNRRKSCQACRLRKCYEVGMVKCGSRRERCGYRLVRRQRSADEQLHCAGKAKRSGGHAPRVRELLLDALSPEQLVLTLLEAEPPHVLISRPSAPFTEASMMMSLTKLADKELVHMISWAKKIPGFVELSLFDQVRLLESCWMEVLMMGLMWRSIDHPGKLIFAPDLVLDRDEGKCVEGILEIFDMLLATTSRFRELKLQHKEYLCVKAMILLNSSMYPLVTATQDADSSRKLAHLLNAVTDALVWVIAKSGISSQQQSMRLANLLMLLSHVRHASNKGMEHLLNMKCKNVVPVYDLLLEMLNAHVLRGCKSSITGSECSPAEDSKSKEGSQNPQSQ

| estrogenic activity (ER-β-specific) (ER-β) | Compound | induction of apoptosis (breast cancer cells) | induction of cell death (breast cancer cells) | induction of mitochondrial superoxide (breast cancer cells) | generation of reactive oxygen species (breast cancer cells) | generation/induction of superoxide (breast cancer cells) |
| --- | --- | --- | --- | --- | --- | --- |
| estrogenic activity | O=c1c(O[C@@H]2O[C@H](CO)[C@@H](O)[C@H](O)[C@H]2O)c(-c2ccc(O)c(O)c2)oc2cc(O)cc(O)c12 [Quercetin-3-O-β-glucopyranoside] |  |  |  |  |  |
|  | O=c1cc(-c2ccc(O)cc2)oc2cc(O)cc(O)c12 [Apigenin] | active | active | active |  |  |
| estrogenic activity | O=c1cc(-c2ccc(O)c(O)c2)oc2cc(O)cc(O)c12 [Luteolin] | active | active | active | active | active |
| estrogenic activity | O=C1CC(c2ccc(O)cc2)Oc2cc(O)cc(O)c21 (stereo not shown) [Narigenin] |  |  |  |  |  |

| Compound | estrogenic activity (ER-β-specific) (ER-β) | induction of apoptosis (breast cancer cells) | induction of cell death (breast cancer cells) | induction of mitochondrial superoxide (breast cancer cells) | generation of reactive oxygen species (breast cancer cells) | generation/induction of superoxide (breast cancer cells) |
| --- | --- | --- | --- | --- | --- | --- |
| C[C@@H]1O[C@@H](Oc2c(-c3ccc(O)c(O)c3)oc3cc(O)cc(O)c3c2=O)[C@H](O)[C@H](O)[C@H]1O [Quercetrin] | estrogenic activity |  |  |  |  |  |
| O=c1c(O)c(-c2ccc(O)c(O)c2)oc2cc(O)cc(O)c12 [Quercetin] | estrogenic activity |  |  |  |  |  |

Source: US20100234310A1, “ESTROGENIC COMPOUNDS AND THEIR METHODS OF USE” (Bionovo, Inc., priority 2009, published 2010)
